Data: the supplement of paper PMC11061612

Columns and labels:
Test in all cases: combination Emax (second highest fraction inhibited in the dose matrix, 72 h); higher = more inhibition; extreme values may be limits of the assay
[1] = test system: 639-V (Bladder Carcinoma)
In short: (§1)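 After 24 hours at 37°C and 5% CO2 in 1536-well plates, cells in DMEM/F12 or RPMI plus 10% FBS received two-drug dose matrices for 72 hours. Viability came from CellTiter-Glo 2.0 luminescence and was scaled as inhibition, anchored at 0 by vehicle wells and at 1 by blank wells. Combination Emax is taken as the second-highest inhibition in the matrix, and Bliss excess as the observed combination effect less EA + EB − EA·EB, with EA and EB the single-agent effects.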

[2] = test system: CAL-51 (Breast Carcinoma)
In short: as §1

[3] = test system: CAPAN-1 (Pancreatic Carcinoma)
In short: as §1

COLO-829 (Melanoma) = test system: COLO-829 (Melanoma)
In short: as §1

[4] = test system: EN (Endometrial Carcinoma)
In short: as §1

[5] = test system: HARA (Squamous Cell Lung Carcinoma)
In short: as §1

HMV-II (Melanoma) = test system: HMV-II (Melanoma)
In short: as §1

[6] = test system: HO-1-u-1 (Oral Cavity Carcinoma)
In short: as §1

[7] = test system: Hs-633T (Other Solid Carcinomas)
In short: as §1

[8] = test system: KARPAS-231 (B-Cell Non-Hodgkin's Lymphoma)
In short: as §1

[9] = test system: LB771-HNC (Head and Neck Carcinoma)
In short: as §1

[10] = test system: LoVo (Colorectal Carcinoma)
In short: as §1

[11] = test system: MDA-MB-468 (Breast Carcinoma)
In short: as §1

[12] = test system: MHH-PREB-1 (B-Cell Non-Hodgkin's Lymphoma)
In short: as §1

Mewo (Melanoma) = test system: Mewo (Melanoma)
In short: as §1

[13] = test system: OC-314 (Ovarian Carcinoma)
In short: as §1

SH-4 (Melanoma) = test system: SH-4 (Melanoma)
In short: as §1

[14] = test system: SU-DHL-6 (B-Cell Non-Hodgkin's Lymphoma)
In short: as §1

[15] = test system: SW1116 (Colorectal Carcinoma)
In short: as §1

[16] = test system: SW1271 (Small Cell Lung Carcinoma)
In short: as §1

| Compound | combination Emax [1] | combination Emax [2] | combination Emax [3] | combination Emax (COLO-829 (Melanoma)) | combination Emax [4] | combination Emax [5] | combination Emax (HMV-II (Melanoma)) | combination Emax [6] | combination Emax [7] | combination Emax [8] | combination Emax [9] | combination Emax [10] | combination Emax [11] | combination Emax [12] | combination Emax (Mewo (Melanoma)) | combination Emax [13] | combination Emax (SH-4 (Melanoma)) | combination Emax [14] | combination Emax [15] | combination Emax [16] |
| --- | --- | --- | --- | --- | --- | --- | --- | --- | --- | --- | --- | --- | --- | --- | --- | --- | --- | --- | --- | --- |
| CN(C)CCCOc1ccc(-c2ccc3ncc4c(c3c2)n(C2CCOCC2)c(=O)n4C)cn1 [AZD0156] + C=CCn1c(=O)c2cnc(Nc3ccc(N4CCN(C)CC4)cc3)nc2n1-c1cccc(C(C)(C)O)n1 [AZD1775] (first compound max 1 µM, partner max 1 µM) | 0.204 | 0.728 | 0.394 | 0.099 | 0.512 | 0.809 | 0.401 | 0.77 | 0.769 | 0.988 | 0.557 | 0.785 | 0.42 | 0.844 | 0.47 | 0.515 | 0.564 | 0.699 | 0.235 | 0.476 |
| CN(C)CCCOc1ccc(-c2ccc3ncc4c(c3c2)n(C2CCOCC2)c(=O)n4C)cn1 [AZD0156] + CCN(CCO)CCCOc1ccc2c(Nc3cc(CC(=O)Nc4cccc(F)c4)[nH]n3)ncnc2c1 [AZD2811] (first compound max 1 µM, 7x7, partner max 1 µM) | 0.179 | 0.196 | 0.137 | 0.069 | 0.494 | 0.289 | 0.164 | 0.209 | 0.373 | 0.563 | 0.142 | 0.435 | 0.363 | 0.154 | 0.153 | 0.312 | 0.247 | 0.478 | 0.0823 | 0.201 |
| CN(C)CCCOc1ccc(-c2ccc3ncc4c(c3c2)n(C2CCOCC2)c(=O)n4C)cn1 [AZD0156] + C[C@@H]1COCCN1C2=NC(=NC(=C2)C3(CC3)[S@](=N)(=O)C)C4=C5C=CNC5=NC=C4 [AZD6738] (first compound max 1 µM, 7x7, partner max 10 µM) | 0.35 | 0.95 | 0.368 | 0.159 | 0.581 | 0.908 | 0.335 | 0.943 | 0.925 | 0.904 | 0.48 | 0.867 | 0.527 | 0.909 | 0.594 | 0.869 | 0.465 | 0.629 | 0.28 | 0.595 |
| CN(C)CCCOc1ccc(-c2ccc3ncc4c(c3c2)n(C2CCOCC2)c(=O)n4C)cn1 [AZD0156] + O=C(c1cc(Cc2n[nH]c(=O)c3ccccc23)ccc1F)N1CCN(C(=O)C2CC2)CC1 [Olaparib] (first compound max 3 µM, partner max 3 µM) | 0.443 | 0.296 | 0.295 | 0.0677 | 0.227 | 0.411 | 0.383 | 0.408 | 0.57 | 0.371 | 0.223 | 0.693 | 0.392 | 0.378 | 0.322 | 0.497 | 0.327 | 0.729 | 0.206 | 0.351 |
| C=CCn1c(=O)c2cnc(Nc3ccc(N4CCN(C)CC4)cc3)nc2n1-c1cccc(C(C)(C)O)n1 [AZD1775] + C1CN(CCC1(C(=O)N[C@@H](CCO)C2=CC=C(C=C2)Cl)N)C3=NC=NC4=C3C=CN4 [Capivasertib] (first compound max 3 µM, partner max 3 µM) | 0.642 | 0.941 | 0.674 | 0.322 | 0.715 | 0.929 | 0.592 | 0.913 | 0.897 | 1 | 0.696 | 0.937 | 0.741 | 0.812 | 0.589 | 0.915 | 0.715 | 0.994 | 0.48 | 0.682 |
| C[C@@H]1COCCN1c1cc(C2([S@](C)(=N)=O)CC2)nc(-c2ccnc3[nH]ccc23)n1 [AZD6738] + O=C(c1cc(Cc2n[nH]c(=O)c3ccccc23)ccc1F)N1CCN(C(=O)C2CC2)CC1 [Olaparib] (first compound max 10 µM, 7x7, partner max 10 µM) | 0.787 | 0.926 | 0.442 | 0.194 | 0.535 | 0.778 | 0.374 | 0.793 | 0.821 | 0.723 | 0.483 | 0.772 | – | 0.679 | 0.548 | 0.872 | 0.419 | 0.621 | 0.262 | 0.666 |
| COc1cc2ncnc(Nc3ccc(F)c(Cl)c3)c2cc1OCCCN1CCOCC1 [Gefitinib] + CC(C)n1c(=O)n(C)c2cnc3cc(F)c(-c4ccc(OCCCN5CCCCC5)nc4)cc3c21 [AZD1390] (first compound max 10 µM, 7x7, partner max 0.3 µM) | 0.158 | 0.068 | 0.253 | 0.143 | 0.248 | 0.298 | 0.411 | 0.487 | 0.203 | 0.24 | 0.0839 | 0.421 | – | 0.123 | 0.0376 | 0.255 | 0.149 | 0.433 | 0.241 | 0.188 |
| C[C@@H](c1ccc2nccn2c1)n1nnc2ncc(-c3cnn(C)c3)nc21 [Savolitinib] + CC1(C)CCC(CN2CCN(c3ccc(C(=O)NS(=O)(=O)c4ccc(NCC5CCOCC5)c([N+](=O)[O-])c4)c(Oc4cnc5[nH]ccc5c4)c3)CC2)=C(c2ccc(Cl)cc2)C1 [Venetoclax] (first compound max 1 µM, 7x7, partner max 1 µM) | 0.121 | 0.113 | 0.181 | 0.209 | 0.238 | 0.122 | 0.12 | 0.0993 | 0.16 | 0.866 | 0.115 | 0.195 | – | 0.0731 | 0.194 | 0.254 | 0.139 | 0.465 | 0.145 | 0.161 |
| C[C@@H](c1ccc2nccn2c1)n1nnc2ncc(-c3cnn(C)c3)nc21 [Savolitinib] + Cc1c2c(nn1C)CSCc1cc(n(C)n1)CSc1cc(c3ccccc3c1)OCCCc1c(C(=O)O)n(C)c3c-2c(Cl)ccc13 [AZD5991] (first compound max 1 µM, 7x7, partner max 1 µM) | 0.21 | 0.152 | 0.242 | 0.242 | 0.43 | 0.236 | 0.128 | 0.196 | 0.12 | 0.606 | 0.412 | 0.195 | – | 0.0906 | 0.265 | 0.163 | 0.192 | 1 | 0.218 | 0.166 |
| Cn1cnc2c(F)c(Nc3ccc(Br)cc3Cl)c(C(=O)NOCCO)cc21 [Selumetinib] + C=CCn1c(=O)c2cnc(Nc3ccc(N4CCN(C)CC4)cc3)nc2n1-c1cccc(C(C)(C)O)n1 [AZD1775] (first compound max 10 µM, partner max 1 µM) | 0.455 | 0.893 | 0.59 | 0.481 | 0.587 | 0.919 | 0.812 | 0.456 | 0.628 | 0.982 | 0.452 | 0.723 | – | 0.777 | 0.47 | 0.452 | 0.94 | 0.616 | 0.444 | 0.565 |
| Cn1cnc2c(F)c(Nc3ccc(Br)cc3Cl)c(C(=O)NOCCO)cc21 [Selumetinib] + CC(C)n1c(=O)n(C)c2cnc3cc(F)c(-c4ccc(OCCCN5CCCCC5)nc4)cc3c21 [AZD1390] (first compound max 10 µM, 7x7, partner max 0.3 µM) | 0.238 | 0.157 | 0.376 | 0.481 | 0.261 | 0.184 | 0.719 | 0.188 | 0.433 | 0.225 | 0.136 | 0.425 | – | 0.108 | 0.403 | 0.211 | 0.854 | 0.265 | 0.502 | 0.499 |
| Cn1cnc2c(F)c(Nc3ccc(Br)cc3Cl)c(C(=O)NOCCO)cc21 [Selumetinib] + CCN(CCO)CCCOc1ccc2c(Nc3cc(CC(=O)Nc4cccc(F)c4)[nH]n3)ncnc2c1 [AZD2811] (first compound max 10 µM, 7x7, partner max 1 µM) | 0.342 | 0.479 | 0.426 | 0.506 | 0.569 | 0.409 | 0.717 | 0.328 | 0.486 | 0.609 | 0.152 | 0.445 | – | 0.134 | 0.444 | 0.425 | 0.906 | 0.385 | 0.534 | 0.485 |
| Cn1cnc2c(F)c(Nc3ccc(Br)cc3Cl)c(C(=O)NOCCO)cc21 [Selumetinib] + C[C@@H]1COCCN1C2=NC(=NC(=C2)C3(CC3)[S@](=N)(=O)C)C4=C5C=CNC5=NC=C4 [AZD6738] (first compound max 10 µM, 7x7, partner max 10 µM) | 0.464 | 0.964 | 0.585 | 0.597 | 0.558 | 0.835 | 0.735 | 0.718 | 0.748 | 0.639 | 0.503 | 0.738 | – | 0.675 | 0.466 | 0.753 | 0.91 | 0.405 | 0.476 | 0.552 |
